Measured values taken from PubChem BioAssay (NCI).
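These data come from cells grown in 96-well plates and exposed to compound for 48 hours at five concentrations. The concentration for full growth arrest is given as TGI.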

Experiments:
Experiment in all cases: growth of human tumour cells (NCI), 48 h
UO-31 renal = system: UO-31 renal
RPMI-8226 leukemia = system: RPMI-8226 leukemia
COLO 205 colon = system: COLO 205 colon
ACHN renal = system: ACHN renal
SW-620 colon = system: SW-620 colon
NCI-H23 lung = system: NCI-H23 lung
OVCAR-8 ovarian = system: OVCAR-8 ovarian
NCI/ADR-RES ovarian = system: NCI/ADR-RES ovarian
SK-MEL-28 melanoma = system: SK-MEL-28 melanoma
U251 CNS = system: U251 CNS
LOX IMVI melanoma = system: LOX IMVI melanoma
HCT-116 colon = system: HCT-116 colon
NCI-H460 lung = system: NCI-H460 lung
MDA-MB-231 breast = system: MDA-MB-231 breast
UACC-62 melanoma = system: UACC-62 melanoma
HOP-92 NSCLC = system: HOP-92 NSCLC
A549 NSCLC = system: A549 NSCLC
OVCAR-4 ovarian = system: OVCAR-4 ovarian
SF-268 CNS = system: SF-268 CNS
MCF7 breast = system: MCF7 breast
MOLT-4 leukemia = system: MOLT-4 leukemia
IGROV1 ovarian = system: IGROV1 ovarian
T-47D breast = system: T-47D breast
HL-60(TB) leukemia = system: HL-60(TB) leukemia
CAKI-1 renal = system: CAKI-1 renal
SK-OV-3 ovarian = system: SK-OV-3 ovarian
OVCAR-3 ovarian = system: OVCAR-3 ovarian
NCI-H226 lung = system: NCI-H226 lung
PC-3 prostate = system: PC-3 prostate
SNB-19 CNS = system: SNB-19 CNS
HCC-2998 colon = system: HCC-2998 colon
MDA-N = system: MDA-N
K-562 leukemia = system: K-562 leukemia
MDA-MB-435 = system: MDA-MB-435
RXF 393 renal = system: RXF 393 renal
SR leukemia = system: SR leukemia
KM12 colon = system: KM12 colon
HCT-15 colon = system: HCT-15 colon
M14 melanoma = system: M14 melanoma
HS 578T breast = system: HS 578T breast
A498 renal = system: A498 renal
TK-10 renal = system: TK-10 renal
EKVX NSCLC = system: EKVX NSCLC
HOP-62 NSCLC = system: HOP-62 NSCLC
SF-539 CNS = system: SF-539 CNS
OVCAR-5 ovarian = system: OVCAR-5 ovarian
UACC-257 melanoma = system: UACC-257 melanoma
SK-MEL-2 melanoma = system: SK-MEL-2 melanoma
MALME-3M melanoma = system: MALME-3M melanoma
HT29 colon = system: HT29 colon
DU-145 prostate = system: DU-145 prostate
BT-549 breast = system: BT-549 breast
NCI-H522 lung = system: NCI-H522 lung
CCRF-CEM leukemia = system: CCRF-CEM leukemia
SN12C renal = system: SN12C renal
SNB-75 CNS = system: SNB-75 CNS
SK-MEL-5 melanoma = system: SK-MEL-5 melanoma
786-0 renal = system: 786-0 renal

NC(Cc1ccc(OCc2ccccc2)cc1)C(=O)NC(Cc1ccccc1)C(=O)Oc1c(Cl)c(Cl)c(Cl)c(Cl)c1Cl (stereo unspecified)
TGI (UO-31 renal): 30.4 µM
TGI (RPMI-8226 leukemia): > 100 µM
TGI (COLO 205 colon): 28.3 µM
TGI (ACHN renal): 30.5 µM
TGI (SW-620 colon): 31.7 µM
TGI (NCI-H23 lung): 30.6 µM
TGI (OVCAR-8 ovarian): 31.8 µM
TGI (NCI/ADR-RES ovarian): 40.7 µM
TGI (SK-MEL-28 melanoma): 31.6 µM
TGI (U251 CNS): 31.2 µM
TGI (LOX IMVI melanoma): 27.1 µM
TGI (HCT-116 colon): 31.3 µM
TGI (NCI-H460 lung): 30.5 µM
TGI (MDA-MB-231 breast): 25.7 µM
TGI (UACC-62 melanoma): 32.7 µM
TGI (HOP-92 NSCLC): 25.8 µM
TGI (A549 NSCLC): 37.5 µM
TGI (OVCAR-4 ovarian): 35.5 µM
TGI (SF-268 CNS): 38.9 µM
TGI (MCF7 breast): 36 µM
TGI (MOLT-4 leukemia): > 100 µM
TGI (IGROV1 ovarian): 31.4 µM
TGI (T-47D breast): 37.1 µM
TGI (HL-60(TB) leukemia): > 100 µM
TGI (CAKI-1 renal): 30.7 µM
TGI (SK-OV-3 ovarian): 28.9 µM
TGI (OVCAR-3 ovarian): 28.9 µM
TGI (NCI-H226 lung): 26.5 µM
TGI (PC-3 prostate): 32.4 µM
TGI (SNB-19 CNS): 34 µM
TGI (HCC-2998 colon): 34 µM
TGI (MDA-N): 26.8 µM
TGI (K-562 leukemia): > 100 µM
TGI (MDA-MB-435): 33.9 µM
TGI (RXF 393 renal): 28.3 µM
TGI (SR leukemia): > 100 µM
TGI (KM12 colon): 28.8 µM
TGI (HCT-15 colon): 30.2 µM
TGI (M14 melanoma): 28.5 µM
TGI (HS 578T breast): 31 µM
TGI (A498 renal): 37.9 µM
TGI (TK-10 renal): 28.9 µM
TGI (EKVX NSCLC): 41.6 µM
TGI (HOP-62 NSCLC): 30.5 µM
TGI (SF-539 CNS): 30.6 µM
TGI (OVCAR-5 ovarian): 31.1 µM
TGI (UACC-257 melanoma): 32.8 µM
TGI (SK-MEL-2 melanoma): 26.5 µM
TGI (MALME-3M melanoma): 35.3 µM
TGI (HT29 colon): 32.1 µM
TGI (DU-145 prostate): 27 µM
TGI (BT-549 breast): 32.7 µM
TGI (NCI-H522 lung): 42.3 µM
TGI (CCRF-CEM leukemia): > 100 µM
TGI (SN12C renal): 32 µM
TGI (SNB-75 CNS): 29.6 µM
TGI (SK-MEL-5 melanoma): 32.4 µM

COc1ccccc1-n1c(=O)n(C)c(=O)n1C(C)(C)C
TGI (UO-31 renal): > 100 µM
TGI (RPMI-8226 leukemia): > 100 µM
TGI (COLO 205 colon): > 100 µM
TGI (SW-620 colon): > 100 µM
TGI (NCI-H23 lung): > 100 µM
TGI (OVCAR-8 ovarian): > 100 µM
TGI (NCI/ADR-RES ovarian): > 100 µM
TGI (SK-MEL-28 melanoma): > 100 µM
TGI (U251 CNS): > 100 µM
TGI (LOX IMVI melanoma): > 100 µM
TGI (HCT-116 colon): > 100 µM
TGI (NCI-H460 lung): > 100 µM
TGI (MDA-MB-231 breast): > 100 µM
TGI (UACC-62 melanoma): > 100 µM
TGI (A549 NSCLC): > 100 µM
TGI (OVCAR-4 ovarian): > 100 µM
TGI (SF-268 CNS): > 100 µM
TGI (MCF7 breast): > 100 µM
TGI (MOLT-4 leukemia): > 100 µM
TGI (T-47D breast): > 100 µM
TGI (HL-60(TB) leukemia): > 100 µM
TGI (CAKI-1 renal): > 100 µM
TGI (SK-OV-3 ovarian): > 100 µM
TGI (OVCAR-3 ovarian): > 100 µM
TGI (786-0 renal): > 100 µM
TGI (NCI-H226 lung): > 100 µM
TGI (PC-3 prostate): > 100 µM
TGI (SNB-19 CNS): > 100 µM
TGI (HCC-2998 colon): > 100 µM
TGI (MDA-N): > 100 µM
TGI (K-562 leukemia): > 100 µM
TGI (MDA-MB-435): > 100 µM
TGI (RXF 393 renal): > 100 µM
TGI (SR leukemia): > 100 µM
TGI (KM12 colon): > 100 µM
TGI (HCT-15 colon): > 100 µM
TGI (M14 melanoma): > 100 µM
TGI (HS 578T breast): > 100 µM
TGI (A498 renal): > 100 µM
TGI (TK-10 renal): > 100 µM
TGI (EKVX NSCLC): > 100 µM
TGI (SF-539 CNS): > 100 µM
TGI (OVCAR-5 ovarian): > 100 µM
TGI (UACC-257 melanoma): > 100 µM
TGI (SK-MEL-2 melanoma): > 100 µM
TGI (MALME-3M melanoma): > 100 µM
TGI (HT29 colon): > 100 µM
TGI (DU-145 prostate): > 100 µM
TGI (BT-549 breast): > 100 µM
TGI (NCI-H522 lung): > 100 µM
TGI (CCRF-CEM leukemia): > 100 µM
TGI (SN12C renal): > 100 µM
TGI (SNB-75 CNS): > 100 µM
TGI (SK-MEL-5 melanoma): > 100 µM
